In US4362743A, “Antibacterial monic acid esters” (Beecham Group Limited, priority 1980, dated 1982):
≈ marks a conversion by molar mass, not a printed value. Like-named read-outs stand apart in the source and are kept apart here.

Key:
[1] = system: M. bovigenitalium ATCC 14173; test: Anti-mycoplasmal activity in vitro MIC; format: cell-based; conditions: 144 h
Strep. pneumoniae CN33 = test: Human bacteria MIC; format: cell-based; conditions: Streptococcus pneumoniae
Method: (§1) The values were determined by serial dilutions in nutrient agar with 5% chocolated horse blood after incubations for 18 hours at 37° C.

[2] = system: Haemophilus influenzae Q1; test: Human bacteria MIC; format: cell-based
Method: as §1

[3] = system: Neisseria catarralis 1502; test: Human bacteria MIC; format: cell-based
Method: as §1

Strep Group B 2788 = test: Human bacteria MIC; format: cell-based
Method: as §1

Strep. pyogenes R80/421 = test: Human bacteria MIC; format: cell-based; conditions: Streptococcus pyogenes
Method: as §1

E. Coli NCT 10418 = test: Human bacteria MIC; format: cell-based; conditions: Escherichia coli
Method: as §1

E. coli ESS = test: Human bacteria MIC; format: cell-based; conditions: Escherichia coli, 18 h
Method: as §1

Bacillus subtilis 6633 = test: Human bacteria MIC; format: cell-based
Method: as §1

Staph. aureus Oxford = test: Human bacteria MIC; format: cell-based; conditions: Staphylococcus aureus
Method: as §1

Staph. aureus W2827 = test: Human bacteria MIC; format: cell-based; conditions: Staphylococcus aureus; Staph. aureus W2827; nutrient agar, 5% chocolated horse blood, 18 hours 37° C.; read-out: M.I.C.
Method: as §1

Strep. faecalis I = test: Human bacteria MIC; format: cell-based; conditions: Enterococcus faecalis, nutrient agar, 5% chocolated horse blood, 18 hours 37° C.
Method: as §1

K. aerogenes A = test: Human bacteria MIC; format: cell-based; conditions: Klebsiella aerogenes
Method: as §1

Staph. aureus Russell = test: Human bacteria MIC; format: cell-based; conditions: Staphylococcus aureus
Method: as §1

[4] = system: Corneybacterium xerosis 9755; test: Human bacteria MIC; format: cell-based
Method: as §1

Ps. aeruginosa 10662 = test: Human bacteria MIC; format: cell-based
Method: as §1

P. mirabilis 889 = test: Human bacteria MIC; format: cell-based
Method: as §1

Strep. Group C 64/848 = test: Human bacteria MIC; format: cell-based
Method: as §1

[5] = system: Pasteurella multocida 1633; test: Human bacteria MIC; format: cell-based; conditions: Pasteurella multocida, 1633, 18 h
Method: as §1

[6] = Serum binding by ultrafiltration; format: in vitro ADME; conditions: pig, porcine serum, 8 mcg/ml, read-out: % bound to pig serum (converted)
Method: Serum binding was assessed by ultrafiltration of porcine serum containing compounds at 8 mcg/ml, and through an Amicon CF50A ultrafiltration cone. Separation of ultrafiltrate was achieved by centrifugation. Unbound concentrations of compound were measured in the ultrafiltrate by microbiological assay (B. subtilis ATCC 6633) against standards prepared in saline.

M. hyorhinis ATCC 23234 = test: Anti-mycoplasmal activity in vitro MIC; format: cell-based; conditions: Mesomycoplasma hyorhinis, ATCC23234, 144 h
M. pneumoniae ATCC 15492 = test: Anti-mycoplasmal activity in vitro MIC; format: cell-based; conditions: Mycoplasmoides pneumoniae, ATCC15492, 144 h
M. bovis NCTC 10131 = test: microbe, parasite or virus in culture; format: cell-based; conditions: NCTC10131, 144 h
[7] = system: M. suipneumoniae PW/C/210; test: Anti-mycoplasmal activity in vitro MIC; format: cell-based; conditions: Mesomycoplasma hyopneumoniae, 144 h
[8] = system: M. suipneumoniae J2206/183b; test: Anti-mycoplasmal activity in vitro MIC; format: cell-based; conditions: Mesomycoplasma hyopneumoniae, 144 h
M. suipneumoniae LABER = test: Anti-mycoplasmal activity in vitro MIC; format: cell-based; conditions: Mesomycoplasma hyopneumoniae, 144 h
M. suipneumoniae MS16 = test: Anti-mycoplasmal activity in vitro MIC; format: cell-based; conditions: Mesomycoplasma hyopneumoniae, MS16, 144 h
M. hyorhinis ATCC 25021 = test: Anti-mycoplasmal activity in vitro MIC; format: cell-based; conditions: Mesomycoplasma hyorhinis, ATCC25021, 144 h
[9] = Strep. pneumoniae CN33, nutrient agar, 5% chocolated horse blood, 18 hours 37° C., read-out: M.I.C.
[10] = Strep. pyogenes R80/421, nutrient agar, 5% chocolated horse blood, 18 hours 37° C., read-out: M.I.C.
[11] = E. Coli NCT 10418, nutrient agar, 5% chocolated horse blood, 18 hours 37° C., read-out: M.I.C.
[12] = Staph. aureus Oxford, nutrient agar, 5% chocolated horse blood, 18 hours 37° C., read-out: M.I.C.
[13] = K. aerogenes A, nutrient agar, 5% chocolated horse blood, 18 hours 37° C., read-out: M.I.C.
[14] = Staph. aureus Russell, nutrient agar, 5% chocolated horse blood, 18 hours 37° C., read-out: M.I.C.
[15] = Corneybacterium xerosis 9755, nutrient agar, 5% chocolated horse blood, 18 hours 37° C., read-out: M.I.C.
[16] = Pseudomonas aeruginosa, Ps. aeruginosa 10662, nutrient agar, 5% chocolated horse blood, 18 hours 37° C., read-out: M.I.C.
[17] = Proteus mirabilis, P. mirabilis 889, nutrient agar, 5% chocolated horse blood, 18 hours 37° C., read-out: M.I.C.
[18] = M. suipneumoniae J2206/183b, Friis broth, 0.9% agarose, 6 days 37° C., read-out: M.I.C.
[19] = Haemophilus influenzae, Q1, 18 h

Structure (SMILES) | MIC (Strep. pneumoniae CN33; [9]) [µg/mL] | MIC (Strep. pyogenes R80/421; [10]) [µg/mL] | MIC (E. Coli NCT 10418; [11]) [µg/mL] | MIC (E. coli ESS) [µg/mL] | MIC (Staph. aureus Oxford; [12]) [µg/mL] | MIC (Staph. aureus W2827) [µg/mL] | MIC (Strep. faecalis I) [µg/mL] | MIC (K. aerogenes A; [13]) [µg/mL] | MIC (Staph. aureus Russell; [14]) [µg/mL] | MIC [4, 15] [µg/mL] | MIC (Ps. aeruginosa 10662; [16]) [µg/mL] | MIC (P. mirabilis 889; [17]) [µg/mL] | MIC [5] [µg/mL] | fraction unbound [6] | MIC (M. hyorhinis ATCC 23234) [µg/mL] | MIC (M. pneumoniae ATCC 15492) [µg/mL] | MIC (M. bovis NCTC 10131) [µg/mL] | MIC [7] [µg/mL] | MIC (M. suipneumoniae MS16) [µg/mL] | MIC (M. hyorhinis ATCC 25021) [µg/mL] | further results
CON=C(CCCOC(=O)/C=C(\C)C[C@@H]1OC[C@H](C[C@@H]2O[C@H]2[C@@H](C)[C@H](C)O)[C@@H](O)[C@H]1O)c1ccccc1 [Example 5, 4-Methoxyimino-4-phenylbutyl monate A] | 2.5 (≈ 4.81 µM) | 2.5 (≈ 4.81 µM) | > 100 | 5 (≈ 9.62 µM) | 1 (≈ 1.92 µM) | 2.5 (≈ 4.81 µM) | > 100 | > 100 | 2.5 (≈ 4.81 µM) | > 100 | > 100 | > 100 | 50 (≈ 96.2 µM) | < 0.068 | 0.25 (≈ 0.481 µM) | 2.5 (≈ 4.81 µM) | 0.025 (≈ 0.0481 µM) | 0.25 (≈ 0.481 µM) | 0.25 (≈ 0.481 µM) | 0.25 (≈ 0.481 µM) | MIC ([1]; M. bovigenitalium ATCC 14173, Friis broth, 0.9% agarose, 6 days 37° C., read-out: M.I.C.): 0.05 µg/mL (≈ 0.0962 µM); MIC ([2]; Haemophilus influenzae Q1, nutrient agar, 5% chocolated horse blood, 18 hours 37° C., read-out: M.I.C.): 2.5 µg/mL (≈ 4.81 µM); MIC ([3]; Neisseria catarralis 1502, nutrient agar, 5% chocolated horse blood, 18 hours 37° C., read-out: M.I.C.): 1 µg/mL (≈ 1.92 µM); MIC (Strep Group B 2788; Strep Group B 2788, nutrient agar, 5% chocolated horse blood, 18 hours 37° C., read-out: M.I.C.): 5 µg/mL (≈ 9.62 µM); MIC (Bacillus subtilis 6633; Bacillus subtilis 6633, nutrient agar, 5% chocolated horse blood, 18 hours 37° C., read-out: M.I.C.): 1 µg/mL (≈ 1.92 µM); MIC (Strep. Group C 64/848; Strep. Group C 64/848, nutrient agar, 5% chocolated horse blood, 18 hours 37° C., read-out: M.I.C.): 2.5 µg/mL (≈ 4.81 µM); MIC [8, 18]: 0.5 µg/mL (≈ 0.962 µM); MIC (M. suipneumoniae LABER): 0.25 µg/mL (≈ 0.481 µM)
C/C(=C\C(=O)OC1CCC(=NO)CC1)C[C@@H]1OC[C@H](C[C@@H]2O[C@H]2[C@@H](C)[C@H](C)O)[C@@H](O)[C@H]1O (stereo partly drawn) [Example 3, 4-Hydroxyiminocyclohexyl monate A] | 0.5 (≈ 1.1 µM) | 0.5 (≈ 1.1 µM) | > 100 | 1 (≈ 2.2 µM) | 2.5 (≈ 5.49 µM) | 5 (≈ 11 µM) | 25 (≈ 54.9 µM) | > 100 | 5 (≈ 11 µM) | > 100 | > 100 | > 100 | 1 (≈ 2.2 µM) | 0.355 | 0.25 (≈ 0.549 µM) | 1 (≈ 2.2 µM) | ≤ 0.01 | 0.25 (≈ 0.549 µM) | 0.25 (≈ 0.549 µM) | 0.25 (≈ 0.549 µM) | MIC [1]: 0.025 µg/mL (≈ 0.0549 µM); MIC [2, 19]: 0.25 µg/mL (≈ 0.549 µM); MIC ([3]; Neisseria, 1502, 18 h): 1 µg/mL (≈ 2.2 µM); MIC (Strep Group B 2788; 18 h): 1 µg/mL (≈ 2.2 µM); MIC (Bacillus subtilis 6633; Bacillus subtilis, 6633, 18 h): 1 µg/mL (≈ 2.2 µM); MIC (Strep. Group C 64/848; 18 h): 1 µg/mL (≈ 2.2 µM); MIC [8, 18]: 0.5 µg/mL (≈ 1.1 µM); MIC (M. suipneumoniae LABER): 0.25 µg/mL (≈ 0.549 µM)
C/C(=C\C(=O)OCCCCCC=NN(C)C)C[C@@H]1OC[C@H](C[C@@H]2O[C@H]2[C@@H](C)[C@H](C)O)[C@@H](O)[C@H]1O [Example 6, 6-Dimethylhydrazonohexyl monate A] |  |  |  | 5 (≈ 10.3 µM) |  | 0.25 (≈ 0.516 µM) | > 100 |  |  |  |  |  | 1 (≈ 2.06 µM) | 0.239 | 0.25 (≈ 0.516 µM) | 2.5 (≈ 5.16 µM) | ≤ 0.01 |  | 0.25 (≈ 0.516 µM) | 0.25 (≈ 0.516 µM) | MIC [1]: 0.025 µg/mL (≈ 0.0516 µM); MIC (Strep. pneumoniae CN33; CN33, 18 h): 1 µg/mL (≈ 2.06 µM); MIC [2, 19]: 0.5 µg/mL (≈ 1.03 µM); MIC ([3]; Neisseria, 1502, 18 h): 0.05 µg/mL (≈ 0.103 µM); MIC (Strep Group B 2788; 18 h): 1 µg/mL (≈ 2.06 µM); MIC (Strep. pyogenes R80/421; R80/421, 18 h): 1 µg/mL (≈ 2.06 µM); MIC (E. Coli NCT 10418; 18 h): > 100 µg/mL; MIC (Bacillus subtilis 6633; Bacillus subtilis, 6633, 18 h): 5 µg/mL (≈ 10.3 µM); MIC (Staph. aureus Oxford; 18 h): 0.1 µg/mL (≈ 0.206 µM); MIC (K. aerogenes A; 18 h): > 100 µg/mL; MIC (Staph. aureus Russell; 18 h): 0.25 µg/mL (≈ 0.516 µM); MIC ([4]; 18 h): > 100 µg/mL; MIC (Ps. aeruginosa 10662; Pseudomonas aeruginosa, 10662, 18 h): > 100 µg/mL; MIC (P. mirabilis 889; Proteus mirabilis, 889, 18 h): > 100 µg/mL; MIC (Strep. Group C 64/848; 18 h): 1 µg/mL (≈ 2.06 µM); MIC ([7]; M. suipneumoniae PW/C/210, Friis broth, 0.9% agarose, 6 days 37° C., read-out: M.I.C.): 0.5 µg/mL (≈ 1.03 µM); MIC ([8]; J2206/183B): 1 µg/mL (≈ 2.06 µM); MIC (M. suipneumoniae LABER; M. suipneumoniae LABER, Friis broth, 0.9% agarose, 6 days 37° C., read-out: M.I.C.): 0.5 µg/mL (≈ 1.03 µM)
